Assay [1] has as its system HeLa. The assay can be described thus: Photocytotoxicity against human HeLa cells assessed as reduction in cell viability irradiated with 640 +/- 15 nm red LED for 4 hrs measured after 24 hrs under hypoxic condition by MTT assay. The format is functional, cell-based. The conditions noted are these: light or radiation study. (Tetrazolium assays rely on reduction of a dye to a coloured formazan, in cell work by metabolically active cells.)

Assay [2] relates to A-375. The assay can be described thus: Photocytotoxicity against human A-375 cells assessed as reduction in cell viability irradiated with 640 +/- 15 nm red LED for 4 hrs measured after 24 hrs by MTT assay. The conditions noted are these: A-375, light or radiation study. Type of assay: functional, cell-based.
Assay [3] has as its system KYSE-70 cell line. The assay can be described thus: Photocytotoxicity against human KYSE-70 cells assessed as reduction in cell viability irradiated with 640 +/- 15 nm red LED for 4 hrs measured after 24 hrs by MTT assay. Type of assay: functional, cell-based. The conditions noted are these: KYSE-70, light or radiation study.
In assay [4] the test system is KYSE-70 cell line. The assay can be described thus: Cytotoxicity against human KYSE-70 cells assessed as cell viability in dark measured after 24 hrs by MTT assay. The following applies: KYSE-70, 24 h. Type of assay: functional, cell-based.
Assay [5] relates to HeLa. The assay can be described thus: Photocytotoxicity against human HeLa cells assessed as reduction in cell viability irradiated with 640 +/- 15 nm red LED for 4 hrs measured after 24 hrs by MTT assay. Type of assay: functional, cell-based. The conditions noted are these: light or radiation study.
Assay [6] relates to B16. The assay can be described thus: Cytotoxicity against mouse B16 cells assessed as cell viability in dark measured after 24 hrs by MTT assay. Type of assay: functional, cell-based. The conditions noted are these: B16, 24 h.
Assay [7] concerns HeLa. The assay can be described thus: Photo-therapeutic index, ratio of LD50 for photocytotoxicity against human HeLa cells assessed as reduction in cell viability irradiated with 640 +/- 15 nm red LED for 4 hrs measured after 24 hrs by MTT assay to LD50 for cytotoxicity against human HeLa cells assessed as cell viability in dark measured after 24 hrs by MTT assay. Type of assay: functional.

Assay [8] has as its system A-375. The assay can be described thus: Photocytotoxicity against human A-375 cells assessed as reduction in cell viability irradiated with 640 +/- 15 nm red LED for 4 hrs measured after 24 hrs under hypoxic condition by MTT assay. The format is functional, cell-based. The following applies: A-375, light or radiation study.
Assay [9] relates to B16. The assay can be described thus: Photocytotoxicity against mouse B16 cells assessed as reduction in cell viability irradiated with 640 +/- 15 nm red LED for 4 hrs measured after 24 hrs by MTT assay. Type of assay: functional, cell-based. The conditions noted are these: B16, light or radiation study.
The subject of assay [10] is A-375. The assay can be described thus: Cytotoxicity against human A-375 cells assessed as cell viability in dark measured after 24 hrs by MTT assay. The format is functional, cell-based. The conditions noted are these: A-375, 24 h.
The subject of assay [11] is B16. The assay can be described thus: Photocytotoxicity against mouse B16 cells assessed as reduction in cell viability irradiated with 640 +/- 15 nm red LED for 4 hrs measured after 24 hrs under hypoxic condition by MTT assay. The format is functional, cell-based. The following applies: B16, light or radiation study.
Assay [12] deals with HeLa. The assay can be described thus: Cytotoxicity against human HeLa cells assessed as cell viability in dark measured after 24 hrs by MTT assay. The format is functional, cell-based.
Assay [13] has as its system KYSE-70 cell line. The assay can be described thus: Photocytotoxicity against human KYSE-70 cells assessed as reduction in cell viability irradiated with 640 +/- 15 nm red LED for 4 hrs measured after 24 hrs under hypoxic condition by MTT assay. Type of assay: functional, cell-based. The following applies: KYSE-70, light or radiation study.

The results in this text go back to ChEMBL document CHEMBL4732046, “A red-light-activated sulfonamide porphycene for highly efficient photodynamic therapy against hypoxic tumor” (Eur J Med Chem, 2021).

As to `CC(C)(C)C1=Cc2nc1ccc1[nH]c(cc1C(C)(C)C)c1nc(ccc3[nH]c2cc3S(=O)(=O)NCCOCCO)C(S(=O)(=O)NCCOCCO)=C1`, the DC50 in the assay on HeLa [1] came out at 329 nM; with A-375 [2] it was 23 nM; in the assay with KYSE-70 cell line [3], 5 nM; in the assay with KYSE-70 cell line [4], 28000 nM; in the assay with HeLa [5] it was 69 nM; in the assay with B16 [6] it was 57000 nM. The DC50 in the assay with A-375 [8] was 57 nM; with B16 [9], 168 nM; with A-375 [10] it was 28000 nM; with B16 [11], 370 nM; with HeLa [12], 24000 nM; with KYSE-70 cell line [13], 24 nM. Further, in the assay on HeLa [7], the Ratio is on record as 73.
With `CC/N=c1/cc2sc3cc(N(CC)CC)ccc3nc-2c2ccccc12`, the DC50 was 1030 nM with HeLa [1]; 507 nM in the assay with A-375 [2]; 305 nM in the assay with KYSE-70 cell line [3]; 4000 nM in the assay on KYSE-70 cell line [4]; 95 nM in the assay with HeLa [5]; 11000 nM in the assay with B16 [6]. Also, the DC50 in the assay on A-375 [8] worked out at 1300 nM; in the assay with B16 [9] it was 930 nM; in the assay on A-375 [10], 1000 nM; with B16 [11], 1890 nM; with HeLa [12] it was 7000 nM; with KYSE-70 cell line [13], 809 nM.
